Here are results for 22 compounds from patent US8492371B2, “Compounds as cannabinoid receptor ligands” (priority 2009, dated 2013).

Structures are written as SMILES. Read-outs that look alike come from different tables or passages of the source.

One experiment concerns the target T1, human CB2 receptors (Homo sapiens, UniProt P34972).
T1 construct: expressed in transfected cells; host or cells: HEK293
As to the kind of experiment: Human CB2 radioligand binding assay ([3H]CP-55,940 competition). The method in brief: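 Membranes from HEK293 cells stably expressing human CB2 (5 μg/well) incubated 90 min at 30 °C with 0.5 nM [3H]CP-55,940 and five concentrations of displacer (0.01 nM–10 μM) in pH 7.4 Tris/EDTA/MgCl2 buffer with fatty acid free BSA. Bound radioactivity counted after filtration; nonspecific binding defined with 10 μM unlabeled CP-55,940.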

The target in a further experiment is T2, rat CB2 receptors (Rattus norvegicus, UniProt Q9QZN9).
T2 construct: expressed in transfected cells; host or cells: HEK293
T2 sequence (Q9QZN9 1-360): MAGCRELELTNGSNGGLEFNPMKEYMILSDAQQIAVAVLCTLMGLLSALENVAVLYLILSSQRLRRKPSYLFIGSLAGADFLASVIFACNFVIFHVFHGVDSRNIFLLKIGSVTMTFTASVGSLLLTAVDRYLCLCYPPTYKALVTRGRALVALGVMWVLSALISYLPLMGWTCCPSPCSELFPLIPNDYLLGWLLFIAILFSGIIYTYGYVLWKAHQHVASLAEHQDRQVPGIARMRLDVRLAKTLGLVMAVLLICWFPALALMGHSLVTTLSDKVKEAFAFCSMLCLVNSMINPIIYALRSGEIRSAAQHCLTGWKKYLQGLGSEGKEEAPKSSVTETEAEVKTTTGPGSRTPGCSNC
Description: Rat CB2 radioligand binding assay ([3H]CP-55,940 competition). The method in brief: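 Membranes from HEK293 cells stably expressing rat CB2 (20 μg/well) incubated 45 min at 30 °C with 0.5 nM [3H]CP-55,940 and five competitor concentrations in Tris/EDTA/MgCl2 buffer with 0.5 mg/mL BSA, pH 7.4. Filtration and scintillation counting; nonspecific binding with 10 μM unlabeled CP-55,940.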

Where [1] appears, read: HEK293 membranes, 0.5 nM [3H]CP-55,940, read-out: human CB2 Ki.

T1 sequence (P34972 whole entry): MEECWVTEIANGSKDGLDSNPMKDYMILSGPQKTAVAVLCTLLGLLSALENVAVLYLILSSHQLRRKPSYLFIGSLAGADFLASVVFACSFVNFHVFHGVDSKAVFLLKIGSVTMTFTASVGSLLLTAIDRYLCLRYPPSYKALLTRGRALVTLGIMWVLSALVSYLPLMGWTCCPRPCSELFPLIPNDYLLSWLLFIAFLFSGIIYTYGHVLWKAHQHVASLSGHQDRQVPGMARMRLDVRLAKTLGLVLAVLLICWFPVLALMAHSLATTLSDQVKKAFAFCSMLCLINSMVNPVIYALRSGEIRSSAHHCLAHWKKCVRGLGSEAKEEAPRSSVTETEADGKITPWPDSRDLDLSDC

In general, Ki refers to the dissociation constant of the complex between target and ligand, obtained from inhibition or displacement. Take `Cn1c(C(C)(C)C)c/c(=N\C(=O)c2cccc(C(F)(F)F)c2F)n1C[C@H]1CCCO1` [Example 46, N-{(3E)-5-tert-butyl-1-methyl-2-[(2R)-tetrahydrofuran-2-ylmethyl]-1,2-dihydro-3H-pyrazol-3-ylidene}-2-fluoro-3-(trifluoromethyl)benzamide]: the inhibition constant (Ki) on human CB2 receptors is 0.7 nM; on rat CB2 receptors, 1.3 nM.

`Cn1c(C(C)(C)C)c/c(=N\C(=O)c2cccc(C#N)c2)n1C[C@H]1CCCO1` [Example 130, N-{(3E)-5-tert-butyl-1-methyl-2-[(2R)-tetrahydrofuran-2-ylmethyl]-1,2-dihydro-3H-pyrazol-3-ylidene}-3-cyanobenzamide]: the Ki is 72 nM on human CB2 receptors and 17 nM on rat CB2 receptors.

As to `Cn1c(C(C)(C)C)c/c(=N\C(=O)c2cc(C(F)(F)F)ccc2Br)n1C[C@H]1CCCO1` [Example 88, 2-bromo-N-{(3E)-5-tert-butyl-1-methyl-2-[(2R)-tetrahydrofuran-2-ylmethyl]-1,2-dihydro-3H-pyrazol-3-ylidene}-5-(trifluoromethyl)benzamide], the Ki on human CB2 receptors amounted to 20 nM; on rat CB2 receptors, 5.4 nM.

With `CN(C)S(=O)(=O)Nc1ccc(C(F)(F)F)cc1C(=O)/N=c1\cc(C(C)(C)C)n(C)n1C[C@H]1CCCO1` [Example 121, N-{(3E)-5-tert-butyl-1-methyl-2-[(2R)-tetrahydrofuran-2-ylmethyl]-1,2-dihydro-3H-pyrazol-3-ylidene}-2-{[(dimethylamino)sulfonyl]amino}-5-(trifluoromethyl)benzamide], the inhibitory constant (Ki) on human CB2 receptors amounted to 53 nM; at rat CB2 receptors, 15 nM.

Take `COc1ccc(C(F)(F)F)cc1C(=O)/N=c1\oc(C(C)(C)C)cn1C[C@H]1CCCO1` [Example 66, N-[(2Z)-5-tert-butyl-3-[(2R)-tetrahydrofuran-2-ylmethyl]-1,3-oxazol-2(3 H)-ylidene]-2-methoxy-5-(trifluoromethyl)benzamide]: the Ki at human CB2 receptors is 2.1 nM; on rat CB2 receptors, 0.8 nM.

Take `C[C@@H](F)COc1ccc(C(F)(F)F)cc1C(=O)/N=c1\cc(C(C)(C)C)n(C)n1C[C@H]1CCCO1` [Example 41, N-{(3E)-5-tert-butyl-1-methyl-2-[(2R)-tetrahydrofuran-2-ylmethyl]-1,2-dihydro-3H-pyrazol-3-ylidene}-2-{[(2R)-2-fluoropropyl]oxy}-5-(trifluoromethyl)benzamide]: the inhibition constant Ki on human CB2 receptors is 132 nM; on rat CB2 receptors it was 18 nM.

In the case of `COCCCc1ccc(C(F)(F)F)cc1C(=O)/N=c1\cc(C(C)(C)C)n(C)n1C[C@H]1CCCO1` [Example 90, N-{(3E)-5-tert-butyl-1-methyl-2-[(2R)-tetrahydrofuran-2-ylmethyl]-1,2-dihydro-3H-pyrazol-3-ylidene}-2-(3-methoxypropyl)-5-(trifluoromethyl)benzamide], the inhibition constant (Ki) at human CB2 receptors came to 3.5 nM; on rat CB2 receptors, 3 nM.

In the case of `COc1ccc(Cl)cc1C(=O)/N=c1\cc(C(C)(C)C)on1C[C@H]1CCCO1` [Example 11, N-[(3E)-5-tert-butyl-2-[(2R)-tetrahydrofuran-2-ylmethyl]isoxazol-3(2H)-ylidene]-5-chloro-2-methoxybenzamide], the inhibitory constant (Ki) at human CB2 receptors is 4.8 nM; at rat CB2 receptors, 2.6 nM.

`Cn1c(C(C)(C)C)c/c(=N\C(=O)c2cc(C(F)(F)F)ccc2Cl)n1C[C@H]1CCCO1` [Example 54, N-{(3E)-5-tert-butyl-1-methyl-2-[(2R)-tetrahydrofuran-2-ylmethyl]-1,2-dihydro-3H-pyrazol-3-ylidene}-2-chloro-5-(trifluoromethyl)benzamide]: the inhibition constant (Ki) worked out at 17 nM on human CB2 receptors and 9.5 nM on rat CB2 receptors.

As to `Cn1c(C(C)(C)C)c/c(=N\C(=O)c2cc(C(F)(F)F)ccc2NS(C)(=O)=O)n1C[C@H]1CCCO1` [Example 113, N-{(3E)-5-tert-butyl-1-methyl-2-[(2R)-tetrahydrofuran-2-ylmethyl]-1,2-dihydro-3H-pyrazol-3-ylidene}-2-[(methylsulfonyl)amino]-5-(trifluoromethyl)benzamide], the Ki was 110 nM at human CB2 receptors and 40 nM on rat CB2 receptors.

With `COc1ccc(C(F)(F)F)cc1C(=O)/N=c1\cc(C2(C)CC2)n(C)n1C[C@H]1CCCO1` [Example 33, 2-methoxy-N-{(3E)-1-methyl-5-(1-methylcyclopropyl)-2-[(2R)-tetrahydrofuran-2-ylmethyl]-1,2-dihydro-3H-pyrazol-3-ylidene}-5-(trifluoromethyl)benzamide], the inhibition constant (Ki) on human CB2 receptors came to 81 nM; on rat CB2 receptors, 14 nM.

Consider `Cn1c(C(C)(C)C)c/c(=N\C(=O)c2cc(C(F)(F)F)ccc2OCC(F)F)n1C[C@H]1CCCO1` [Example 35, N-{(3E)-5-tert-butyl-1-methyl-2-[(2R)-tetrahydrofuran-2-ylmethyl]-1,2-dihydro-3H-pyrazol-3-ylidene}-2-(2,2-difluoroethoxy)-5-(trifluoromethyl)benzamide], for which the values for the Ki at human CB2 receptors and at rat CB2 receptors were 17 nM and 5.5 nM, respectively.

Regarding `COc1ccc(Cl)cc1C(=O)/N=c1\oc(C(C)(C)C)cn1C[C@H]1CCCO1` [Example 13, N-[(2Z)-5-tert-butyl-3-[(2R)-tetrahydrofuran-2-ylmethyl]-1,3-oxazol-2(3H)-ylidene]-5-chloro-2-methoxybenzamide], the Ki on human CB2 receptors worked out at 4.8 nM; at rat CB2 receptors it was 1.9 nM.

`Cn1c(C(C)(C)C)c/c(=N\C(=O)c2cc(C(F)(F)F)ccc2CC(=O)OC(C)(C)C)n1C[C@H]1CCCO1` [Example 111, tert-butyl [2-[({(3E)-5-tert-butyl-1-methyl-2-[(2R)-tetrahydrofuran-2-ylmethyl]-1,2-dihydro-3H-pyrazol-3-ylidene}amino)carbonyl]-4-(trifluoromethyl)phenyl]acetate]: the Ki turned out to be 14 nM on human CB2 receptors and 12 nM at rat CB2 receptors.

Regarding `Cn1c(C(C)(C)C)c/c(=N\C(=O)c2cc(C(F)(F)F)ccc2OCC2CC(=O)C2)n1C[C@H]1CCCO1` [Example 17, N-{(3E)-5-tert-butyl-1-methyl-2-[(2R)-tetrahydrofuran-2-ylmethyl]-1,2-dihydro-3H-pyrazol-3-ylidene}-2-[(3-oxocyclobutyl)methoxy]-5-(trifluoromethyl)benzamide], the Ki was determined as 230 nM at human CB2 receptors (setting [1]) and 58 nM on rat CB2 receptors.

In the case of `CCOCCCOc1ccc(C(F)(F)F)cc1C(=O)/N=c1\cc(C(C)(C)C)n(C)n1C[C@H]1CCCO1` [Example 29, N-{(3E)-5-tert-butyl-1-methyl-2-[(2R)-tetrahydrofuran-2-ylmethyl]-1,2-dihydro-3H-pyrazol-3-ylidene}-2-(3-ethoxypropoxy)-5-(trifluoromethyl)benzamide], the values for the inhibition constant (Ki) at human CB2 receptors and at rat CB2 receptors were 4.8 nM and 14 nM, respectively.

With `CC(CF)Oc1ccc(C(F)(F)F)cc1C(=O)/N=c1\cc(C(C)(C)C)n(C)n1C[C@H]1CCCO1` (stereo partly drawn) [Example 42, N-{(3E)-5-tert-butyl-1-methyl-2-[(2R)-tetrahydrofuran-2-ylmethyl]-1,2-dihydro-3H-pyrazol-3-ylidene}-2-(2-fluoro-1-methylethoxy)-5-(trifluoromethyl)benzamide], the Ki is 139 nM at human CB2 receptors and 30 nM at rat CB2 receptors.

For `Cn1c(C(C)(C)C)c/c(=N\C(=O)c2cc(C(F)(F)F)ccc2NCCF)n1C[C@H]1CCCO1` [Example 39, N-{(3E)-5-tert-butyl-1-methyl-2-[(2R)-tetrahydrofuran-2-ylmethyl]-1,2-dihydro-3H-pyrazol-3-ylidene}-2-[(2-fluoroethyl)amino]-5-(trifluoromethyl)benzamide], the values for the inhibitory constant (Ki) at human CB2 receptors and at rat CB2 receptors were 8.9 nM and 3.8 nM, respectively.

Take `Cn1c(C(C)(C)C)c/c(=N\C(=O)c2cc(Br)ccc2OCCF)n1C[C@H]1CCCO1` [Example 59, 5-bromo-N-{(3E)-5-tert-butyl-1-methyl-2-[(2R)-tetrahydrofuran-2-ylmethyl]-1,2-dihydro-3H-pyrazol-3-ylidene}-2-(2-fluoroethoxy)benzamide]: the Ki is 28 nM at human CB2 receptors and 27 nM at rat CB2 receptors.

Consider `COc1ccc(Cl)cc1C(=O)/N=c1\cc(C(C)(C)C)ccn1C[C@H]1CCCO1` [Example 61, N-[(2E)-4-tert-butyl-1-[(2R)-tetrahydrofuran-2-ylmethyl]pyridin-2(1H)-ylidene]-5-chloro-2-methoxybenzamide], for which the Ki was 103 nM at human CB2 receptors (setting [1]) and 13 nM on rat CB2 receptors.

Take `COc1ccc(C(F)(F)F)cc1C(=O)/N=c1\cc(C(C)(C)C)ccn1C[C@H]1CCCO1` [Example 62, N-[(2E)-4-tert-butyl-[(2R)-tetrahydrofuran-2-ylmethyl]pyridin-2(1H)-ylidene]-2-methoxy-5-(trifluoromethyl)benzamide]: the inhibition constant (Ki) is 20 nM on human CB2 receptors and 4 nM at rat CB2 receptors.

As to `Cn1c(C(C)(C)C)c/c(=N\C(=O)c2cc([N+](=O)[O-])cc(C(F)(F)F)c2)n1C[C@H]1CCCO1` [Example 106, N-{(3E)-5-tert-butyl-1-methyl-2-[(2R)-tetrahydrofuran-2-ylmethyl]-1,2-dihydro-3H-pyrazol-3-ylidene}-3-nitro-5-(trifluoromethyl)benzamide], the results for the Ki on human CB2 receptors (setting [1]) and at rat CB2 receptors were 168 nM and 63 nM, respectively.
